Experimental data reported in patent publication US20070027143A1, “Novel substituted 2,3-benzodiazepine derivatives” (priority 2003, published 2007).
Marks after values point to notes of the source that are not given here.

How the values were obtained:
CD1 mice [1] = experiment: Anticonvulsant activity, nicotine induced seizures; assay type: in vivo; settings: Mus musculus; po.
In short: (§1)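 Read-out: clonic-tonic seizures and lethality after chemical challenge in male CD1 mice, pretreated orally (three doses, ten animals each) typically 60 min earlier.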

rats = experiment: Inhibition of focal ischemia, middle cerebral artery occlusion (MCAO) test; assay type: in vivo
Procedure: The focal anti-ischemic activity of the compounds of formula (I) or (II) of the present invention was measured by the “middle cerebral artery occlusion” (MCAO) test (Bartus Stroke 11:2265 (1994) and Sydserff et al, Brit. J. Pharmacol. 114:1631 (1995)). […] After a histological process (TTC staining) 24 h later, the infarcted area was determined by a computer assisted scanner program and was compared to the results obtained in a control group treated with the vehicle.

CD1 mice [2] = experiment: Anticonvulsant activity, strychnine induced seizures; assay type: in vivo; settings: Mus musculus; po.; read-out: Strychnine ED50
In short: as §1

CD1 mice [3] = experiment: Anticonvulsant activity, bicuculline induced seizures; assay type: in vivo; settings: Mus musculus; po.; read-out: Bicuculline ED50
In short: as §1

CD1 mice [4] = experiment: Anticonvulsant activity, bemegride induced seizures; assay type: in vivo; settings: Mus musculus; po.; read-out: Bemegride ED50
In short: as §1

CD1 mice [5] = experiment: Anticonvulsant activity, 4-aminopyridine induced seizures; assay type: in vivo; settings: Mus musculus; po.; read-out: 4-AP ED50
In short: as §1

CD1 mice [6] = experiment: Muscle relaxant activity, inclined screen test; assay type: in vivo; settings: Mus musculus, ip
CD1 mice [7] = experiment: Anti-tremor effect, oxotremorine induced tremor; assay type: in vivo; settings: for ED50: Mus musculus, po., Litchfield-Wilcoxon, limits in brackets, read-out: ED50, tremor induced by Oxotremorin 1 mg/kg ip.
CD1 mice [8] = experiment: Muscle relaxant activity, rotarod test; assay type: in vivo; settings: Mus musculus, ip
CD1 mice [9] = experiment: Anticonvulsant activity, 3-mercapto-propionic acid induced seizures; assay type: in vivo; settings: Mus musculus; po.; read-out: 3-MPA ED50
In short: as §1

CD1 mice [10] = experiment: Anticonvulsant activity, pentetrazole induced seizures; assay type: in vivo; settings: Mus musculus; po.; read-out: Pentetrazol ED50
In short: as §1

Lewis rats = experiment: Autoimmune encephalomyelitis model, histological symptoms; assay type: in vivo; settings: day 24 after immunization
Procedure: 5-15 animals were used in each group. Their weights were 160-180 g (Lewis rats, female) and 180-220 g (Lewis rats, male). The activity of the compounds was determined according to the symptom score values, and compared to those of the control group (see Table 6). Histopathological investigations were carried out on the brain stem, the spinal cord, and the sciatic nerve (Gijbels et al., J. Clin. Invest. 94:2177 (1994)) using 5-10 animal/group.
Compounds of the invention were further investigated in the autoimmune encephalomyelitis model in rats as outlined in this description before, with the variance that 10 animals were used in each group, of weights 140-160 g (Lewis rats, female).

BN rats = experiment: Airway eosinophilia of ovalbumin sensitized, antigen challenged BN rats (BALF eosinophil count); assay type: in vivo; settings: 3.0 mg/kg po, 2 hours pre-challenge, mean ± SE
From the text: Bronchial hyperresponsiveness (BHR) and airway eosinophilia (AEP) are characteristic features of bronchial asthma. BHR is typified by an exaggerated response to a wide variety of stimuli that can induce an increased resistance to airflow in the airways. AEP is a result of prolonged eosinophil infiltration, mast cell, and T cell activation in the airways. In actively (e.g., ovalbumin) immunized rats (e.g., Brown Norway [BN] strain), repeated sensitization followed by antigenic challenge results in lung eosinophilia and bronchial hyperresponsiveness to different spasmogens (e.g., acetylcholine). This is the most frequently employed model for studying potential anti-asthmatic effects of new chemical entities.
BN rats were actively immunized with allergen (ovalbumin). On day one, rats were sensitized with the subcutaneous administration of ovalbumin suspended in Al(OH)3 (2.5 μg ovalbumin +20 mg Al(OH)3 in 0.5 ml saline). Booster injections (same dose and same route) were given at day 14 and 21. Simultaneously at each occasion 0.25 ml of Bordatella pentussis vaccine was injected intraperitoneally. On day 28, animals were challenged by inhalation of the antigen (vaporized 1% OVA solution for 1 hour). Test compounds were administered orally 2 hours pre-challenge.
48 hours following challenge, they were sacrificed by an overdose of urethane (4-5 ml of 15% urethane given i.p.), bronchoalveolar lavage fluid (BALF) was obtained, and tracheae dissected from the animals. Eosinophil cell count (cells/ml BALF) was determined manually using a selective stain for eosinophils and counting the cells in a Buerker chamber. BHR was determined using tracheal rings suspended in an organ bath. After an equilibration period of 30 minutes, cumulative concentration response curves to acetylcholine were determined. Maximal response of control (unchallenged, non-treated) tracheal rings is obtained at 10^−3 M acetylcholine. The height of this response is defined as 100%. All other contractions are expressed as a percentage and related to the control response.

AMPA/kainate receptors = experiment: Inhibition of AMPA induced whole-cell current in acutely isolated cerebellar Purkinje cells (patch clamp); assay type: cell-based; settings: 5 μM AMPA, read-out: Inhibition of the ion-currents caused by 5 μM AMPA, IC50
In short: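 Whole-cell patch-clamp on acutely isolated cerebellar Purkinje cells; current evoked by 5 μM AMPA, with compound activity measured as inhibition of this AMPA-induced current.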

CD1 mice [11] = experiment: Anti-tremor effect, GYKI 20039 induced tremor; assay type: in vivo; settings: Mus musculus; po., Litchfield-Wilcoxon, limits in brackets; read-out: ED50, tremor induced by GYKI 20039 10 mg/kg ip.
[12] = 2 mg/kg iv. 6x in every 30 min, first treatment 120 min after occlusion
[13] = 2 mg/kg iv. 6x in every 30 min, first treatment 180 min after occlusion

SMILES | ED50 (CD1 mice [1]) [mg/kg] | Decrease of the infracted area in % compared to that of the control (rats; [12]) | Decrease of the infracted area in % compared to that of the control (rats; [13]) | ED50 (CD1 mice [2]) [mg/kg] | ED50 (CD1 mice [3]) [mg/kg] | ED50 (CD1 mice [4]) [mg/kg] | ED50 (CD1 mice [5]) [mg/kg] | ED50 (CD1 mice [6]) [mg/kg] | ED50 (CD1 mice [7]) [mg/kg] | ED50 (CD1 mice [8]) [mg/kg] | ED50 (CD1 mice [9]) [mg/kg] | ED50 (CD1 mice [10]) [mg/kg] | BALF eosinophil number (BN rats) | IC50 (AMPA/kainate receptors) [nM] | ED50 (CD1 mice [11]) [mg/kg] | Histological (histopathological) symptoms (change, %) (Lewis rats; 1.875 mg/kg ip., female rats) [%] | Histological (histopathological) symptoms (change, %) (Lewis rats; 3.75 mg/kg ip., female rats) | further results
CC(=O)N1N=C(c2ccc(N)cc2)c2cc3c(cc2C[C@H]1C)OCO3 [GYKI 53773, (R)-7-acetyl-5-(4-aminophenyl)-8,9-dihydro-8-methyl-7H-1,3-dioxolo[4,5-h][2,3]benzodiazepine, reference compound] | 22.7 | 49** % | 26% | 17.4 | 14.6 | 23.9 | 8.4 | 13.4 | 5.6 | 2.3 | 17.1 | 16.8 | 1.29 ± 0.11 ×10^6/ml | 1570 | 10.6 | – | – | Decrease of the infracted area in % compared to that of the control (rats; 2 mg/kg iv. 6x in every 30 min, first treatment 30 min after occlusion): 47* %; Histological symptoms (change, %) (Lewis rats; 30 mg/kg ip., female rats): −16%; Histological symptoms (change, %) (Lewis rats; 30 mg/kg ip., male rats): +34%
Cc1nnc(N2N=C(c3ccc(N)cc3)c3cc4c(cc3C[C@H]2C)OCO4)s1 [Example 86, (R)-5-(4-Aminophenyl)-8-methyl-7-(5-methyl-1,3,4-thiadiazol-2-yl)-8,9-dihydro-7H-1,3-dioxolo-[4,5-h][2,3]benzodiazepine] | 16.5 | – | – | 10.6 | 4.6 | 11.2 | 10.1 | 3.9 | 4.3 | 0.8 | 4 | 10 | 1.32 ± 0.32 ×10^6/ml | 60 | 6.8 | −15 | −20% | Decrease of the infracted area in % compared to that of the control (rats; 1 mg/kg iv. 6x in every 30 min, first treatment 180 min after occlusion): 35* %; Neuroprotective activity when administered 3 h after the occlusion (rats; result in words): significant activity; Anti-tremor activity compared to the reference compounds (CD1 mice [7]; oxotremorine, GYKI 20039 and harmaline, result in words): more active than the reference compounds GYKI 53773 and GYKI 52466; Histological symptoms (change, %) (Lewis rats; 1.875 mg/kg ip., male rats): −25%; Histological symptoms (change, %) (Lewis rats; 3.75 mg/kg ip., male rats): +4%; Histological symptoms (change, %) (Lewis rats; 7.5 mg/kg ip., female rats): −22%; Histological symptoms (change, %) (Lewis rats; 7.5 mg/kg ip., male rats): +1%; Histological symptoms (change, %) (Lewis rats; 15 mg/kg ip., female rats): −53%; Histological symptoms (change, %) (Lewis rats; 15 mg/kg ip., male rats): −66%
Cc1nnc(N2N=C(c3ccc(N)c(C)c3)c3cc4c(cc3C[C@H]2C)OCO4)s1 [Example 119, (R)-5-(4-amino-3-methylphenyl)-8-methyl-7-(5-methyl-1,3,4-thiadiazol-2-yl)-8,9-dihydro-7H-1,3-dioxolo-[4,5-h][2,3]benzodiazepine] | 6.3 | 56* % | 44** % | 8.4 | 2.5 | 5.7 | 2.68 | 2.49 | 1.38 | 0.51 | 3.37 | 5 | 1.16 ± 0.24 ×10^6/ml | 26 | 2.21 | −8 | +3% | Decrease of the infracted area in % compared to that of the control (rats; 0.5 mg/kg iv. 6x in every 30 min, first treatment 120 min after occlusion): 7%; Decrease of the infracted area in % compared to that of the control (rats; 1 mg/kg iv. 6x in every 30 min, first treatment 120 min after occlusion): 38%; Decrease of the infracted area in % compared to that of the control (rats; 1.5 mg/kg iv. 6x in every 30 min, first treatment 120 min after occlusion): 51* %; Decrease of the infracted area in % compared to that of the control (rats; 1.5 mg/kg iv. 6x in every 30 min, first treatment 180 min after occlusion): 21%; Decrease of the infracted area in % compared to that of the control (rats; 2.0 mg/kg iv. 6x in every 30 min, first treatment 240 min after occlusion): 21%; Histopathological symptoms (change %) (Lewis rats; 0.2 mg/kg i.p., female rats): +2%; Histopathological symptoms (change %) (Lewis rats; 0.5 mg/kg i.p., female rats): −13%; Histopathological symptoms (change %) (Lewis rats; 0.5 mg/kg p.o., female rats): −16%; Histopathological symptoms (change %) (Lewis rats; 1.0 mg/kg i.p., female rats): −3%; Histopathological symptoms (change %) (Lewis rats; 1.0 mg/kg p.o., female rats): −21%; Histopathological symptoms (change %) (Lewis rats; 1.875 mg/kg p.o., female rats): −42%; Histopathological symptoms (change %) (Lewis rats; 3.75 mg/kg p.o., female rats): −32%
